The IC50 is the concentration needed to halve the response being measured. Low readings indicate higher potency, high ones lower potency.

Like-named read-outs stand apart in the source and are kept apart here.

In the experiment the target is Nav 1.7 (Homo sapiens (Human), UniProt Q15858). Briefly: in-vitro Nav 1.7 PX (IC50). The class given is cell-based.
Chain of Nav 1.7 (Q15858 whole entry): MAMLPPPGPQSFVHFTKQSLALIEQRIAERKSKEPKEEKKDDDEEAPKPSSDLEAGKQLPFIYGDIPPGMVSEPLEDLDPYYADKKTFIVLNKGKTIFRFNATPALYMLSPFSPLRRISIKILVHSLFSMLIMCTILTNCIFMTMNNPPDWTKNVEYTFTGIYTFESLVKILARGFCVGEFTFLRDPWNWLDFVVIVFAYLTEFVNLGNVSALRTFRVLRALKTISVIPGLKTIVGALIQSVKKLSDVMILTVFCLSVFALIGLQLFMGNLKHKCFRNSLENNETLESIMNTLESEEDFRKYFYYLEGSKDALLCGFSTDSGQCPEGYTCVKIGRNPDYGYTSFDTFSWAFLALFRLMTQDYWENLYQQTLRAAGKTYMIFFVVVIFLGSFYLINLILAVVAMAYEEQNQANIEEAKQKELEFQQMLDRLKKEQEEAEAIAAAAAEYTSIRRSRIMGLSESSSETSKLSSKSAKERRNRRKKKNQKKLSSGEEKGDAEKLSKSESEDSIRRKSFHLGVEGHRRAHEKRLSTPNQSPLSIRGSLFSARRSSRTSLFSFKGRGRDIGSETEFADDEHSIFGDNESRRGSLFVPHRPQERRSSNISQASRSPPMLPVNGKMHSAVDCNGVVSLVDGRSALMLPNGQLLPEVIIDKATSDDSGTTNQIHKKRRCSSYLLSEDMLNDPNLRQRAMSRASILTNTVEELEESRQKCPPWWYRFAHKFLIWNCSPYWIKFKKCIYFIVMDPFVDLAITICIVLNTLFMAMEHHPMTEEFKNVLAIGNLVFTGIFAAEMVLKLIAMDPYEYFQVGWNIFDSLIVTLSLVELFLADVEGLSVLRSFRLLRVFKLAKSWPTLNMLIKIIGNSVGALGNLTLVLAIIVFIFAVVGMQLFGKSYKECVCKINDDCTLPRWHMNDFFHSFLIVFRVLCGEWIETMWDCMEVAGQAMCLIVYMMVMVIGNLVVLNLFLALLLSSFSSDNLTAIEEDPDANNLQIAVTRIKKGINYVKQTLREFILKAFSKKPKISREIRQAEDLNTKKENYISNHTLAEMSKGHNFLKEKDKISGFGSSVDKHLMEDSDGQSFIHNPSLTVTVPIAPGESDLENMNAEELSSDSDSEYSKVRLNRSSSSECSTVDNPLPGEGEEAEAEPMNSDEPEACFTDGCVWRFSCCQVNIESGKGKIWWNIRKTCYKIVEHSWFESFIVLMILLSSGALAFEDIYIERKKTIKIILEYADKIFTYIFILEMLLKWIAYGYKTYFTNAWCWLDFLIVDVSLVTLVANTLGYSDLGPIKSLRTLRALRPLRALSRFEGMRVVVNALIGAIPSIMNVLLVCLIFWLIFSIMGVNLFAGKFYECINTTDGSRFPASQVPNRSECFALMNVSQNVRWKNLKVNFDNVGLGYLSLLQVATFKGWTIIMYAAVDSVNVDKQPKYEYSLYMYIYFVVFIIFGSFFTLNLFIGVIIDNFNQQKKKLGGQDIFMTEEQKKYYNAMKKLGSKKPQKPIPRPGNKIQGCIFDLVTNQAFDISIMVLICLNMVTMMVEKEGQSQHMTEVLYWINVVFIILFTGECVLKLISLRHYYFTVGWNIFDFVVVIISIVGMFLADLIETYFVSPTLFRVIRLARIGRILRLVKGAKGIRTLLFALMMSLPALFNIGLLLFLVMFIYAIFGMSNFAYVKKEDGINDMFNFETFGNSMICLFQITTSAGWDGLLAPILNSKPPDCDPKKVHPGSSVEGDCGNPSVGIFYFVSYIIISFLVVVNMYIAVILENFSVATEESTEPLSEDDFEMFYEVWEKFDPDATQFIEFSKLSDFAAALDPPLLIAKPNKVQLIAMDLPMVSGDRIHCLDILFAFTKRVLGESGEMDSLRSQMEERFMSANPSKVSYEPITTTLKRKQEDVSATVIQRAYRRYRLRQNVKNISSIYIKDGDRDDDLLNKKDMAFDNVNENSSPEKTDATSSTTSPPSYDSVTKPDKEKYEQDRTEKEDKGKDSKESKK

Turning to `COc1ccc(-c2cccc(Cl)c2)cc1-n1c(=O)ccc2cc(S(=O)(=O)Nc3ccon3)ccc21` [Example 841, 1-(3′-chloro-4-methoxy-3-biphenylyl)-N-3-isoxazolyl-2-oxo-1,2-dihydro-6-quinolinesulfonamide], where the note is “in-vitro Nav 1.7 PX data”, the half-maximal inhibitory concentration (IC50) was 27 nM.

`COc1cc(-c2ccnc(C(F)(F)F)c2)c(F)cc1-n1c(=O)ccc2cc(S(=O)(=O)Nc3ccon3)ccc21` [Example 762, 1-(5-fluoro-2-methoxy-4-(2-(trifluoromethyl)-4-pyridinyl)phenyl)-N-3-isoxazolyl-2-oxo-1,2-dihydro-6-quinolinesulfonamide] yielded a half-maximal inhibitory concentration (IC50) (in-vitro Nav 1.7 PX data) of 41 nM.

Take `COc1cc(-c2ccc(Cl)c(C)c2)c(C)cc1-n1c(=O)ccc2cc(S(=O)(=O)Nc3ccon3)ccc21` (atropisomer, axis not shown; (P)) [Example 421, (P)-1-(4′-chloro-5-methoxy-2,3′-dimethyl-4-biphenylyl)-N-3-isoxazolyl-2-oxo-1,2-dihydro-6-quinolinesulfonamide]: it took 16 nM to reach half-maximal inhibition (IC50). In other words, the double-digit nanomolar range.

As for `COc1cc(-c2cc(F)c(F)cc2F)ccc1-n1c(=O)ccc2cc(S(=O)(=O)Nc3ccon3)ccc21` [Example 1024, N-3-isoxazolyl-2-oxo-1-(2′,4′,5′-trifluoro-3-methoxy-4-biphenylyl)-1,2-dihydro-6-quinolinesulfonamide], under “in-vitro Nav 1.7 PX data”, inhibition was half-maximal at 62 nM (IC50).

The compound `COc1cc(CC(C)(C)C)c(F)cc1-n1c(=O)ccc2cc(S(=O)(=O)Nc3ccon3)ccc21` [Example 1076, 1-(4-(2,2-dimethylpropyl)-5-fluoro-2-methoxyphenyl)-N-3-isoxazolyl-2-oxo-1,2-dihydro-6-quinolinesulfonamide] came in with an IC50 (in-vitro Nav 1.7 PX data) of 64 nM.

For `COc1cc(-c2ccc(F)c(C)c2)c(F)cc1-n1c(=O)ccc2cc(S(=O)(=O)Nc3nnc(C)s3)ccc21` [Example 948, 1-(2,4′-difluoro-5-methoxy-3′-methyl-4-biphenylyl)-N-(5-methyl-1,3,4-thiadiazol-2-yl)-2-oxo-1,2-dihydro-6-quinolinesulfonamide], for the setting “in-vitro Nav 1.7 PX data”, the IC50 stood at 100 nM.

Take `COc1cc(-c2ccc(C)c(F)c2)c(F)cc1-n1c(=O)ccc2cc(S(=O)(=O)Nc3cccnn3)ccc21` [Example 1128, 1-(2,3′-difluoro-5-methoxy-4′-methyl-4-biphenylyl)-2-oxo-N-3-pyridazinyl-1,2-dihydro-6-quinolinesulfonamide]: the half-inhibitory concentration (IC50) (in-vitro Nav 1.7 PX data) was 36 nM.

For the compound `COc1cccc(-c2nc(OC)c(-n3c(=O)ccc4cc(S(=O)(=O)Nc5ccon5)ccc43)cc2Cl)c1` [Example 1092, 1-(5-chloro-2-methoxy-6-(3-methoxyphenyl)-3-pyridinyl)-N-3-isoxazolyl-2-oxo-1,2-dihydro-6-quinolinesulfonamide], half-maximal inhibition (in-vitro Nav 1.7 PX data) (IC50) required 48 nM. This IC50 and that of the compound before are within 1.5-fold of each other.

`COc1cccc(-c2nc(OC)c(-n3c(=O)ccc4cc(S(=O)(=O)Nc5ccon5)ccc43)cc2Cl)c1` [Example 1093, 1-(5-chloro-2-methoxy-6-(3-methoxyphenyl)-3-pyridinyl)-N-3-isoxazolyl-2-oxo-1,2-dihydro-6-quinolinesulfonamide] yielded a 50% inhibitory concentration (IC50) (in-vitro Nav 1.7 PX data) of 4940 nM.

`COc1ccc(-c2ccc(-n3c(=O)ccc4cc(S(=O)(=O)Nc5ccon5)ccc43)c(OC)c2)cc1Cl` [Example 1026, 1-(3′-chloro-3,4′-dimethoxy-4-biphenylyl)-N-3-isoxazolyl-2-oxo-1,2-dihydro-6-quinolinesulfonamide]: 59 nM corresponded to half-maximal inhibition (in-vitro Nav 1.7 PX data) (IC50).

The compound `COc1cc(-c2ccc(C)c(F)c2)ccc1-n1c(=O)ccc2cc(S(=O)(=O)Nc3ccon3)ccc21` (atropisomer, axis not shown; (P)) [Example 576, (P)-1-(3′-fluoro-3-methoxy-4′-methyl-4-biphenylyl)-N-3-isoxazolyl-2-oxo-1,2-dihydro-6-quinolinesulfonamide] returned a concentration for half-maximal inhibition (IC50) of 40 nM.

`COc1cc(-c2ccc(F)c(F)c2)c(F)cc1-n1c(=O)ccc2cc(S(=O)(=O)Nc3ncco3)ccc21` [Example 936, N-1,3-oxazol-2-yl-2-oxo-1-(2,3′,4′-trifluoro-5-methoxy-4-biphenylyl)-1,2-dihydro-6-quinolinesulfonamide] registered a 50% inhibitory concentration (IC50) (in-vitro Nav 1.7 PX data) of 41 nM. That is a double-digit nanomolar value.

For the compound `COc1nc(-c2cccc(C)c2)c(Cl)cc1-n1c(=O)ccc2cc(S(=O)(=O)Nc3ccon3)ccc21` [Example 1088, 1-(5-chloro-2-methoxy-6-(3-methylphenyl)-3-pyridinyl)-N-3-isoxazolyl-2-oxo-1,2-dihydro-6-quinolinesulfonamide], the concentration for half-maximal inhibition (IC50) (in-vitro Nav 1.7 PX data) was found to be 47 nM. This IC50 and that of the compound before are within 1.5-fold of each other.

Regarding `COc1cc(C#CC2(F)CCCC2)c(F)cc1-n1c(=O)ccc2cc(S(=O)(=O)Nc3ccon3)ccc21` (atropisomer, axis not shown; (P)) [Example 1153, (P)-1-(5-fluoro-4-((1-fluorocyclopentyl)ethynyl)-2-methoxyphenyl)-N-3-isoxazolyl-2-oxo-1,2-dihydro-6-quinolinesulfonamide], the midpoint of inhibition, the IC50, lay at 35 nM. This lies in the double-digit nanomolar range.

With `COc1cc(-c2cccc(C)c2)c(F)cc1-n1c(=O)ccc2cc(S(=O)(=O)Nc3ncco3)ccc21` [Example 1106, 1-(2-fluoro-5-methoxy-3′-methyl-4-biphenylyl)-N-1,3-oxazol-2-yl-2-oxo-1,2-dihydro-6-quinolinesulfonamide], the IC50 (in-vitro Nav 1.7 PX data) is 24 nM.

Compound `COc1cc(-c2cc(F)cc(Cl)c2)ccc1-n1c(=O)ccc2cc(S(=O)(=O)Nc3cccnn3)ccc21` (atropisomer, axis not shown; (P)) [Example 480, (P)-1-(3′-chloro-5′-fluoro-3-methoxy-4-biphenylyl)-2-oxo-N-3-pyridazinyl-1,2-dihydro-6-quinolinesulfonamide] yielded an IC50 (in-vitro PatchXpress (PX)) of 8 nM.

Where the note is “in-vitro Nav 1.7 PX data”, `COc1cc(-c2ccc(F)c(C)c2)c(F)cc1-n1c(=O)ccc2cc(S(=O)(=O)Nc3ncco3)ccc21` [Example 943, 1-(2,4′-difluoro-5-methoxy-3′-methyl-4-biphenylyl)-N-1,3-oxazol-2-yl-2-oxo-1,2-dihydro-6-quinolinesulfonamide] came in with a concentration for half-maximal inhibition (IC50) of 13 nM.

Consider `O=c1ccc2cc(S(=O)(=O)Nc3ccon3)ccc2n1-c1cc(F)c(-c2cc(F)cc(F)c2)cc1O` [Example 624, N-(isoxazol-3-yl)-2-oxo-1-(2,3′,5′-trifluoro-5-hydroxy-[1,1′-biphenyl]-4-yl)-1,2-dihydroquinoline-6-sulfonamide], for which, where the note is “in-vitro Nav 1.7 PX data (PatchXpress)”, inhibition was half-maximal at 1730 nM (IC50).

In turn, `COc1cc(-c2cccc(OC(F)(F)F)c2)ccc1-n1c(=O)ccc2cc(S(=O)(=O)Nc3ccon3)ccc21` [Example 781, N-3-isoxazolyl-1-(3-methoxy-3′-(trifluoromethoxy)-4-biphenylyl)-2-oxo-1,2-dihydro-6-quinolinesulfonamide] gave an IC50 (in-vitro Nav 1.7 PX data) of 10 nM.

`COc1cc(-c2ccc(F)c(F)c2)ccc1-n1c(=O)ccc2cc(S(=O)(=O)Nc3cc(C)ncn3)ccc21` [Example 899, 1-(3′,4′-difluoro-3-methoxy-4-biphenylyl)-N-(6-methyl-4-pyrimidinyl)-2-oxo-1,2-dihydro-6-quinolinesulfonamide] had an IC50 (in-vitro Nav 1.7 PX data) of 107 nM. Compared with the last compound, the IC50 is about 11-fold higher.

As for `COc1nc(O[C@H]2CCCC[C@H]2C)c(Cl)cc1-n1c(=O)ccc2cc(S(=O)(=O)Nc3ccon3)ccc21` [Example 1224, 1-(5-chloro-2-methoxy-6-(((1S,2R)-2-methylcyclohexyl)oxy)-3-pyridinyl)-N-3-isoxazolyl-2-oxo-1,2-dihydro-6-quinolinesulfonamide], half-maximal inhibition (IC50) was put at 88 nM.

Turning to `COc1cc(-c2ccc(F)c(Cl)c2)ccc1-n1c(=O)ccc2cc(S(=O)(=O)Nc3ccon3)ccc21` (atropisomer, axis not shown; (P)) [Example 578, (P)-1-(3′-chloro-4′-fluoro-3-methoxy-4-biphenylyl)-N-3-isoxazolyl-2-oxo-1,2-dihydro-6-quinolinesulfonamide], the IC50 is 16 nM.

`COc1cc(-c2ccc(Cl)cc2)ccc1-n1c(=O)ccc2cc(S(=O)(=O)Nc3ncco3)ccc21` [Example 766, 1-(4′-chloro-3-methoxy-4-biphenylyl)-N-1,3-oxazol-2-yl-2-oxo-1,2-dihydro-6-quinolinesulfonamide] had an IC50 (in-vitro Nav 1.7 PX data) of 37 nM. In other words, the double-digit nanomolar range.

Consider `COc1cc(-c2cc(F)cc(Cl)c2)c(F)cc1-n1c(=O)ccc2cc(S(=O)(=O)Nc3cccnn3)ccc21` (atropisomer, axis not shown; (P)) [Example 542, (P)-1-(3′-chloro-2,5′-difluoro-5-methoxy-4-biphenylyl)-2-oxo-N-3-pyridazinyl-1,2-dihydro-6-quinolinesulfonamide], for which half-maximal inhibition (IC50) was put at 7 nM. This counts as single-digit nanomolar.

`COc1cc(-c2cc(OC)c(-n3c(=O)ccc4cc(S(=O)(=O)Nc5cc(C)ncn5)ccc43)cc2F)ccc1F` [Example 1009, 1-(2,4′-difluoro-3′,5-dimethoxy-4-biphenylyl)-N-(6-methyl-4-pyrimidinyl)-2-oxo-1,2-dihydro-6-quinolinesulfonamide] displayed a 50% inhibitory concentration (IC50) (in-vitro Nav 1.7 PX data) of 151 nM.

As to `COc1cc(-c2cccc(C(F)(F)F)c2)c(F)cc1-n1c(=O)ccc2cc(S(=O)(=O)Nc3ccnc(C)n3)ccc21` [Example 804, 1-(2-fluoro-5-methoxy-3′-(trifluoromethyl)-4-biphenylyl)-N-(2-methyl-4-pyrimidinyl)-2-oxo-1,2-dihydro-6-quinolinesulfonamide], 14 nM corresponded to half-maximal inhibition (in-vitro Nav 1.7 PX data) (IC50). Compared with the last compound, the IC50 is about 11-fold lower.

For `COc1cc(-c2cccc(C)c2OC)c(F)cc1-n1c(=O)ccc2cc(S(=O)(=O)Nc3ccon3)ccc21` [Example 792, 1-(2-fluoro-2′,5-dimethoxy-3′-methyl-4-biphenylyl)-N-3-isoxazolyl-2-oxo-1,2-dihydro-6-quinolinesulfonamide], for the setting “in-vitro Nav 1.7 PX data”, the IC50 is 38 nM.

On to `COc1cc(-c2ccc(OC(F)F)cc2)c(F)cc1-n1c(=O)ccc2cc(S(=O)(=O)Nc3ccon3)ccc21` [Example 763, 1-(4′-(difluoromethoxy)-2-fluoro-5-methoxy-4-biphenylyl)-N-3-isoxazolyl-2-oxo-1,2-dihydro-6-quinolinesulfonamide], for which, where the note is “in-vitro Nav 1.7 PX data”, the IC50 is 30 nM.

`COc1ccc(C2CCOCC2)cc1-n1c(=O)ccc2cc(S(=O)(=O)Nc3ccon3)ccc21` [Example 620, N-3-isoxazolyl-1-(2-methoxy-5-(tetrahydro-2H-pyran-4-yl)phenyl)-2-oxo-1,2-dihydro-6-quinolinesulfonamide] had an IC50 (in-vitro Nav 1.7 PX data) of 8100 nM.

Where the note is “in-vitro Nav 1.7 PX data”, `COc1cc(-c2ccc(Cl)cn2)c(F)cc1-n1c(=O)ccc2cc(S(=O)(=O)Nc3ccon3)ccc21` [Example 800, 1-(4-(5-chloro-2-pyridinyl)-5-fluoro-2-methoxyphenyl)-N-3-isoxazolyl-2-oxo-1,2-dihydro-6-quinolinesulfonamide] had a half-maximal inhibitory concentration (IC50) of 253 nM.
